Laboratory results taken from ChEMBL document CHEMBL1201862, “PubChem BioAssay data set” (2004).
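Cells were grown in 96-well plates and exposed to each compound for 48 hours at five concentrations; endpoints were interpolated linearly between bracketing concentrations, or set to the highest concentration if not reached. GI50 marks 50% less growth.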 Calls of active or inactive are those of the source. Rule as the data show it: active = GI50 up to about 1.1 µM and inactive = higher.

Assays:
Assay in all cases: inhibition of tumour cell growth, NCI panel, 48 h
SN12C = system: SN12C
RXF 393 = system: RXF 393
CAKI-1 = system: CAKI-1
CCRF-CEM = system: CCRF-CEM
UACC-62 = system: UACC-62
Hs-578T = system: Hs-578T
HOP-62 = system: HOP-62
NCI-H226 = system: NCI-H226
K562 = system: K562
BT-549 = system: BT-549
NCI-H23 = system: NCI-H23
OVCAR-3 = system: OVCAR-3
OVCAR-5 = system: OVCAR-5
OVCAR-8 = system: OVCAR-8
LOX IMVI = system: LOX IMVI
SK-MEL-5 = system: SK-MEL-5
SNB-75 = system: SNB-75
OVCAR-4 = system: OVCAR-4
Malme-3M = system: Malme-3M
RPMI-8226 = system: RPMI-8226
KM12 = system: KM12
NCI-H460 = system: NCI-H460
HT-29 = system: HT-29
HCC 2998 = system: HCC 2998
SK-MEL-28 = system: SK-MEL-28
SW-620 = system: SW-620
UO-31 = system: UO-31
SNB-19 = system: SNB-19
A549 = system: A549
786-0 = system: 786-0
HL-60 = system: HL-60
IGROV-1 = system: IGROV-1
U-251 = system: U-251
SF-539 = system: SF-539
EKVX = system: EKVX
MOLT-4 = system: MOLT-4
SF-295 = system: SF-295
TK-10 = system: TK-10
ACHN = system: ACHN
NCI/ADR-RES = system: NCI/ADR-RES
SF-268 = system: SF-268
SR = system: SR
MDA-MB-231 = system: MDA-MB-231
SK-OV-3 = system: SK-OV-3
M14 = system: M14
COLO 205 = system: COLO 205
UACC-257 = system: UACC-257
MCF7 = system: MCF7
HCT-15 = system: HCT-15
T47D = system: T47D
MDA-N = system: MDA-N
PC-3 = system: PC-3
HCT-116 = system: HCT-116
DU-145 = system: DU-145
A498 = system: A498
SK-MEL-2 = system: SK-MEL-2
HOP-92 = system: HOP-92
NCI-H522 = system: NCI-H522
MDA-MB-435 = system: MDA-MB-435

Measured: GI50

O=[N+]([O-])C(C(Cl)=C(Cl)Cl)=C(N1CCCCC1)N1CCCCC1
> 100 µM: HCT-15
inactive: SN12C > 100 µM | RXF 393 63.1 µM | CAKI-1 58.6 µM | CCRF-CEM 41.9 µM | UACC-62 > 100 µM | Hs-578T 13.8 µM | HOP-62 > 100 µM | NCI-H226 > 100 µM | K562 90.2 µM | BT-549 > 100 µM | NCI-H23 > 100 µM | OVCAR-3 62.2 µM | OVCAR-5 > 100 µM | OVCAR-8 > 100 µM | LOX IMVI 55 µM | SK-MEL-5 > 100 µM | SNB-75 > 100 µM | OVCAR-4 > 100 µM | Malme-3M 39.5 µM | RPMI-8226 84.1 µM | KM12 > 100 µM | NCI-H460 > 100 µM | HT-29 > 100 µM | HCC 2998 > 100 µM | SK-MEL-28 > 100 µM | SW-620 > 100 µM | UO-31 22.1 µM | SNB-19 1.95 µM | A549 > 100 µM | 786-0 > 100 µM | HL-60 33.4 µM | IGROV-1 69.5 µM | U-251 > 100 µM | SF-539 > 100 µM | EKVX > 100 µM | MOLT-4 33.7 µM | SF-295 > 100 µM | TK-10 > 100 µM | ACHN > 100 µM | NCI/ADR-RES > 100 µM | SF-268 > 100 µM | SR 33.8 µM | MDA-MB-231 > 100 µM | SK-OV-3 > 100 µM | M14 > 100 µM | COLO 205 > 100 µM | UACC-257 63.4 µM | MCF7 90.4 µM | T47D 45.6 µM | MDA-N 68.2 µM | PC-3 > 100 µM | HCT-116 > 100 µM | DU-145 > 100 µM | A498 > 100 µM

CCCCCCCCCCCCCCCCCC(=O)Nc1ccn(C2CCC(COP(=O)(O)O)O2)c(=O)n1 (stereo unspecified)
> 100 µM: HCT-15
inactive: SN12C > 100 µM | RXF 393 > 100 µM | CAKI-1 > 100 µM | CCRF-CEM > 100 µM | UACC-62 > 100 µM | Hs-578T > 100 µM | HOP-62 > 100 µM | NCI-H226 > 100 µM | K562 > 100 µM | BT-549 > 100 µM | NCI-H23 > 100 µM | SK-MEL-2 > 100 µM | OVCAR-3 > 100 µM | OVCAR-5 > 100 µM | OVCAR-8 > 100 µM | LOX IMVI > 100 µM | SK-MEL-5 > 100 µM | SNB-75 > 100 µM | OVCAR-4 > 100 µM | HOP-92 > 100 µM | RPMI-8226 > 100 µM | KM12 > 100 µM | HT-29 > 100 µM | NCI-H522 > 100 µM | HCC 2998 > 100 µM | MDA-MB-435 > 100 µM | SK-MEL-28 > 100 µM | SW-620 > 100 µM | UO-31 > 100 µM | SNB-19 > 100 µM | A549 > 100 µM | 786-0 > 100 µM | IGROV-1 > 100 µM | U-251 > 100 µM | SF-539 > 100 µM | EKVX > 100 µM | MOLT-4 > 100 µM | SF-295 > 100 µM | TK-10 > 100 µM | ACHN > 100 µM | NCI/ADR-RES > 100 µM | SF-268 > 100 µM | SR > 100 µM | MDA-MB-231 > 100 µM | SK-OV-3 > 100 µM | M14 > 100 µM | COLO 205 > 100 µM | UACC-257 > 100 µM | MCF7 > 100 µM | T47D > 100 µM | PC-3 > 100 µM | HCT-116 > 100 µM | DU-145 > 100 µM | A498 > 100 µM

CCC1C(c2cc(OC)c(OC)c(OC)c2)c2cc3c(cc2OC1N1CCOCC1)OCO3 (stereo unspecified)
active: MDA-N 0.977 µM
3.08 µM: HCT-15
inactive: SN12C 8.15 µM | UACC-62 6.08 µM | Hs-578T 3.02 µM | HOP-62 4.01 µM | NCI-H226 7.98 µM | BT-549 2.99 µM | SK-MEL-2 14.7 µM | OVCAR-3 4.31 µM | OVCAR-5 2.29 µM | OVCAR-8 3.93 µM | LOX IMVI 2.48 µM | SK-MEL-5 1.44 µM | SNB-75 9.4 µM | OVCAR-4 2.12 µM | Malme-3M 13.2 µM | HOP-92 10.8 µM | NCI-H460 3.4 µM | HT-29 2.73 µM | NCI-H522 4.95 µM | SW-620 1.98 µM | UO-31 3.88 µM | SNB-19 4.14 µM | A549 4.36 µM | 786-0 11.6 µM | IGROV-1 3.9 µM | EKVX 14.2 µM | MOLT-4 1.88 µM | SF-295 2.79 µM | ACHN 3.99 µM | NCI/ADR-RES 5.61 µM | SF-268 10.5 µM | SR 3.18 µM | MDA-MB-231 15.8 µM | SK-OV-3 4.88 µM | M14 4.12 µM | COLO 205 4.22 µM | UACC-257 14.6 µM | MCF7 2.84 µM | T47D 10.5 µM | PC-3 2.02 µM | HCT-116 3.68 µM | DU-145 5.33 µM

CCCc1cn2c(/C=N/NC(=N)N)c(-c3ccc(Cl)c([N+](=O)[O-])c3)nc2s1
active: CCRF-CEM 0.192 µM | OVCAR-4 1.06 µM | HT-29 0.826 µM | SW-620 1.07 µM | MOLT-4 0.171 µM
inactive: SN12C 1.84 µM | RXF 393 1.68 µM | CAKI-1 1.82 µM | UACC-62 1.95 µM | Hs-578T 2.01 µM | HOP-62 1.88 µM | NCI-H226 1.99 µM | K562 1.37 µM | BT-549 1.68 µM | NCI-H23 1.74 µM | SK-MEL-2 1.71 µM | OVCAR-3 1.55 µM | OVCAR-5 1.55 µM | OVCAR-8 1.82 µM | LOX IMVI 1.7 µM | SK-MEL-5 1.67 µM | SNB-75 1.74 µM | Malme-3M 1.68 µM | HOP-92 1.68 µM | RPMI-8226 1.64 µM | KM12 1.33 µM | NCI-H460 2.1 µM | NCI-H522 1.98 µM | MDA-MB-435 1.75 µM | SK-MEL-28 1.64 µM | UO-31 1.76 µM | SNB-19 1.5 µM | A549 1.73 µM | 786-0 1.8 µM | HL-60 1.2 µM | IGROV-1 1.89 µM | U-251 1.63 µM | SF-539 1.88 µM | SF-295 1.66 µM | TK-10 1.54 µM | ACHN 1.69 µM | NCI/ADR-RES 2.21 µM | SF-268 2.36 µM | SR 1.25 µM | MDA-MB-231 1.86 µM | SK-OV-3 1.5 µM | M14 1.91 µM | COLO 205 1.51 µM | UACC-257 1.61 µM | MCF7 1.94 µM | T47D 1.42 µM | PC-3 1.81 µM | HCT-116 1.22 µM | DU-145 1.77 µM | A498 1.66 µM
1.7 µM: HCT-15

O=C(O)CN1C(=O)C(Cc2ccc(O)cc2)N=C(c2cccc(O)c2)c2ccccc21 (stereo unspecified)
inactive: SN12C 19 µM | UACC-62 > 100 µM | Hs-578T > 100 µM | HOP-62 > 100 µM | NCI-H226 > 100 µM | K562 > 100 µM | BT-549 > 100 µM | SK-MEL-2 > 100 µM | OVCAR-3 > 100 µM | OVCAR-5 > 100 µM | OVCAR-8 > 100 µM | LOX IMVI > 100 µM | SNB-75 40 µM | OVCAR-4 > 100 µM | Malme-3M > 100 µM | HOP-92 > 100 µM | RPMI-8226 > 100 µM | KM12 > 100 µM | NCI-H460 > 100 µM | HT-29 > 100 µM | NCI-H522 80.4 µM | MDA-MB-435 > 100 µM | SK-MEL-28 > 100 µM | SW-620 > 100 µM | UO-31 > 100 µM | SNB-19 > 100 µM | A549 > 100 µM | 786-0 > 100 µM | HL-60 > 100 µM | IGROV-1 > 100 µM | U-251 > 100 µM | SF-539 > 100 µM | EKVX > 100 µM | MOLT-4 > 100 µM | SF-295 > 100 µM | TK-10 > 100 µM | ACHN > 100 µM | SF-268 > 100 µM | SR > 100 µM | MDA-MB-231 > 100 µM | SK-OV-3 > 100 µM | M14 > 100 µM | UACC-257 > 100 µM | MCF7 > 100 µM | T47D > 100 µM | MDA-N 11.5 µM | PC-3 > 100 µM | HCT-116 > 100 µM | DU-145 > 100 µM | A498 12 µM
> 100 µM: HCT-15
